Assays:
factor D = factor D (Homo sapiens, UniProt P00746); details: cited from earlier work
human C1q = human C1q (Homo sapiens, UniProt P02745+P02746+P02747); experiment: ELISA for C1q binding
Experimental: Ninety-six-well plates (Nunc, Roskilde, Denmark) were coated with serial dilution of the Abs (6.0-0.09 mg/ml) and incubated overnight at 4° C. followed by washing three times with PBS/Tween (pH 7.4). The wells were blocked with 4% skimmed milk (Neogen Europe, Auchincruive, U.K.) for 1 h at room temperature and then washed in PBS/Tween (pH 6.0). Purified hFcRn-GST or pFcRn-GST (1 mg/ml) were diluted in 4% skimmed milk in PBS/Tween (pH 6.0) and preincubated with an HRP-conjugated anti-GST Ab (GE Healthcare U.K., Buckinghamshire, U.K.) diluted 1:5000 and added to the wells. The plates were incubated for 1 h at room temperature and washed with PBS/Tween (pH 6.0). Bound receptor was detected by adding 100 ml of 3,39,5,59-tetramethylbenzidine substrate (Calbiochem-Novabiochem, Nottingham, U.K.). The absorbance was measured at 450 nm using a Sunrise TECAN spectrophotometer. The assay described above was also performed using PBS/Tween (pH 7.4) in all steps. The same setup was used with GST-fused versions of hFcgRI, hFcgRIIa (allotype His131), hFcgRIIb, hFcgRIIIa (allotype Val158), and hFcgRIIIb (1 mg/ml each). In addition, a biotinylated human C1q (hC1 q; 4 mg/ml) preparation was incubated with the Abs and detected using ALP-conjugated streptavidin (GE Healthcare). Absorbance was measured at 405 nm.

Chain of human C1q (P02745 23-245): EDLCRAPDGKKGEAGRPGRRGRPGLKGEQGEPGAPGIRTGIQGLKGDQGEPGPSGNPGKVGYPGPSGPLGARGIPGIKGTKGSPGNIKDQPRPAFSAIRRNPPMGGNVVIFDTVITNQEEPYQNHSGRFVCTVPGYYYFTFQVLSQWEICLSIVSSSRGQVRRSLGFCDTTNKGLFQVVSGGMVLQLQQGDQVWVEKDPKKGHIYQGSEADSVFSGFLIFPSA
Chain of human C1q (P02746 28-253): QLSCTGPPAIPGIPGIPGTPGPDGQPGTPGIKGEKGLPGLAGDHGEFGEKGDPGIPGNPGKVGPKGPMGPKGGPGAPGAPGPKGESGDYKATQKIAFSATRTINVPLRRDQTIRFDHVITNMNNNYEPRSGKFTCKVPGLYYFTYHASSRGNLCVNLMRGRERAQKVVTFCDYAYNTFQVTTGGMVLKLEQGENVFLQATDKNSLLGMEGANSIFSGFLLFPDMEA
Chain of human C1q (P02747 29-245): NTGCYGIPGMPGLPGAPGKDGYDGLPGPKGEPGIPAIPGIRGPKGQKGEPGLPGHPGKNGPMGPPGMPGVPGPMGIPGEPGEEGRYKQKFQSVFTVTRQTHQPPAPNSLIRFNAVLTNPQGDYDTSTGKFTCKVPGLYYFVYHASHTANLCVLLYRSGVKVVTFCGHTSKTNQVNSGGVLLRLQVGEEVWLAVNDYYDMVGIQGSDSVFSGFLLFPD
Chain of factor D (P00746 26-253): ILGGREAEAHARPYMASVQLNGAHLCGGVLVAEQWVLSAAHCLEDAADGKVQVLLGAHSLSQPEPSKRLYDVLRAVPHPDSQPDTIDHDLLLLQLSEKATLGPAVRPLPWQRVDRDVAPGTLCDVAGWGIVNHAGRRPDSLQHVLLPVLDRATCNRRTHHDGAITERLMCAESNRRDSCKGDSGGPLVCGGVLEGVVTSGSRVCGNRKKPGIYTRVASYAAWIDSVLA

| Compound | IC50 (factor D) [nM] | binding to C1q (human C1q) |
| --- | --- | --- |
| N=C(N)c1cc2ccc(OC(=O)c3cccs3)cc2s1 [BCX-1470] | 96 |  |
| rituximab: humanized anti-CD20 IgG1 Ab from Roche, control for ELISA-based binding studies |  | did so in a dose-dependent manner |

Reference: US20170107294A1, “ANTI-CD14 ANTIBODIES AND USES THEREOF” (Nordlandssykehuset HF, priority 2014, published 2017)
